Experimental data as given in PMC11062894, “Protein-based bandpass filters for controlling cellular signaling with chemical inputs” (Nature Chemical Biology, 2023).
“And” between values parts separate entries of the source, which are not always exact repeats. Identical values can stand only once.

Test system: GEMS receptors with CBPA11 (BclXL–LD3 and BclXLhigh variants), STAT3-driven SEAP in HEK293T cells
Assay: GEMS SEAP reporter assay, CBPA11 (BclXLhigh, LD3-v and BclXL-v variants) with A-1155463
Format: cell-based
Design: key to Raw data (SEAP) / SEAP, replicate values / Raw data of Figure 5b / Raw data Figure 5e / Raw data of Independent repeat of CBPA11-v1 vs CBPA11-v1-LD3v3 / Raw data of Independent repeat of CBPA11-v3 vs CBPA11-v3-LD3v3 / Raw data of Figure 5b, CBPA11-v1-LD3v3 (SEAP reporter raw value, single replicate) / Raw data of Figure 5b, CBPA11-v1 (SEAP reporter raw value, single replicate): SEAP activity in U/L in culture supernatant
Source text: To rationally design a CBP responding to a chemical input, we used BclXL as the druglow receptor, LD3 as the designed binder and a designed BclXL variant as the drughigh receptor (referred to as BclXLhigh) to construct a CBP responsive to BclXL inhibitors (Fig. 4a). To design BclXLhigh, we used a multistate design computational protocol described elsewhere[26] […] Thus, BclXLhigh-v(1–3) were chosen as the functional drughigh receptors, resulting in three A-1155463-controlled CBPs (referred to as CBPA11-v(1–3)) (Fig. 4c–e).
HEK293T cells were seeded in a 96-well plate 24 h before transfection. The transfection mix in each well consisted of 3 ng of constitutive human CMV promoter driven mammalian STAT3 expression vector (PhCMV-STAT3-pA), 30 ng of STAT3-induced reporter expression (OStat3-PhCMVmin-SEAP-pA) and 50 ng of expression vectors for each GEMS receptor chain (PSV40-IgK-(drughigh receptor)-EpoRm-IL-6RBm-pA and PSV40-IgK-(druglow receptor-GGGGSX3-LD3)-EpoRm-IL-6RBm-pA). For the specific drughigh receptor and druglow receptor used in the different cellular assays, they are indicated as wild type or with mutations. Then, plasmid DNA was mixed with 50 μl opti-MEM (Thermo Fisher) and 600 ng of polyethyleneimine (Polysciences, catalog no. 24765-1). For drug treatment experiments, drugs were added 12 h post-transfection and incubated with cells for 24 h before the SEAP reporter detection assay.
SEAP activity (U l^−1) in cell culture supernatants was quantified by kinetic measurements at 405 nm (1 minute per measurement for 30 cycles) of absorbance increase due to phosphatase-mediated hydrolysis of para-nitrophenyl phosphate (pNPP).
Binding affinities of SPR drug competition assays were calculated using three-parameter nonlinear regression in GraphPad Prism (v.8.3.0). Representative data of cell assays are presented as individual values and mean values (bars). n = 3 refers to biological replicates. All IC50 or EC50 values of cell assays reported were calculated using four-parameter nonlinear regression ± s.d. Bandpass features of cutoff concentrations and Bandwidth90% were estimated based on the curve fitted using bell-shaped curve nonlinear regression in GraphPad Prism (v.8.3.0). […]
Supplementary Figure 4: Design, screening and validation of BclXLhigh variants. a) Screening of BclXLhigh variants in the GEMS platform. […]
Dissociation constant measurement of BclXLhigh-v(1-3) and LD3. Equilibrium curves are fitted using […]
BclXLhigh-v1 (purple), BclXLhigh-v2 (blue), […]
a) Bcl2high-based bandpass filter designs were developed and to respond to different concentrations of […]
corresponding inhibitor. c) Screening of Bcl2high-based bandpass filter variants in the GEMS platform.
The designed binder LD3 was fused to the druglow-receptor (PSV40-IgK-Bcl2-LD3-EpoRm-IL-6RBm-pA) in one EpoR chain and Bcl2high variants with the insensitive Bcl2 (iBcl2) as control in the other EpoR chain (PSV40-IgK-Bcl2high-EpoRm-IL-6RBm-pA). HEK293T cells were transfected with indicated […]
the mean of six biological replicates ± s.d., overlaid with a scatter dot plot of the original data points.
(1 picture or pasted object on this page, not shown here)
Supplementary Figure 6: Binding affinities and drug resistances of Bcl2high-v(2,4,5) assessed by […]
a) Measurement of dissociation constants for Bcl2high-v(2,4,5) and LD3 interactions. Equilibrium curves […]
Bcl2high-v(2,4,5) measured by SPR. 5 μM of Bcl2 or indicated variants were mixed with 10 μM of […]
Bcl2high-v2 (red), Bcl2high-v4
Supplementary Figure 7: Screening of LD3 variants in CBPA11-v(1-3) and raw data of CBPA11-v(1,3) with LD3-v3 variant. a-c) Screening of LD3 and LD3-v(1-3) variants in complex with BclXL for more sensitive CBPA11-v1 (a), CBPA11-v2 (b), CBPA11-v3 (c) in the GEMS platform. The LD3 variants replaced the role of LD3 (PSV40-IgK-BclXL-LD3-v(1-3)-EpoRm-IL-6RBm-pA) in one EpoR chain and BclXLhigh-v(1-3) in the other EpoR chain (PSV40-IgK-BclXLhigh-V(1-3)-EpoRm-IL-6RBm-pA). HEK293T cells were transfected with […]

[1] = CBPA11-v3-BclXLv2, A-1155463 10000 nM
[2] = CBPA11-v3-LD3v3, A-1155463 1 nM
[3] = CBPA11-v3-LD3v3, A-1155463 3.18 nM
[4] = CBPA11-v3-LD3v3, A-1155463 10 nM
[5] = CBPA11-v3-LD3v3, A-1155463 31.8 nM
[6] = CBPA11-v3-LD3v3, A-1155463 100 nM
[7] = CBPA11-v3-LD3v3, A-1155463 318 nM
[8] = CBPA11-v3-LD3v3, A-1155463 1000 nM
[9] = CBPA11-v3-LD3v3, A-1155463 3180 nM

CN(C)CC#Cc1ccc(OCCCc2sc(N3CCc4cccc(C(=O)Nc5nc6ccccc6s5)c4C3)nc2C(=O)O)c(F)c1 [A-1155463]
Normalized data Figure 5e (CBPA11-v3, A-1155463 1000 nM): 81.2661 and 84.4942 and 85.1885 | Normalized data of Figure 5b (CBPA11-v3, A-1155463 1000 nM): 77.1257 and 88.7382 and 83.2133 | Raw data of Figure 5b (CBPA11-v3, A-1155463 1000 nM): 414.242 and 467.209 and 437.572 | Raw data of Independent repeat of CBPA11-v3 vs CBPA11-v3-LD3v3 (CBPA11-v3, A-1155463 1000 nM): 429.812 and 444.52 and 449.13 | Raw data of Independent repeat of CBPA11-v3 vs CBPA11-v3-LD3v3 (CBPA11-v3, A-1155463 3160 nM): 188.374 and 250.833 and 293.834 | Normalized data Figure 5e (CBPA11-v3, A-1155463 3180 nM): 35.6165 and 47.6783 and 55.7329 | Normalized data of Figure 5b (CBPA11-v3, A-1155463 3180 nM): 69.9852 and 73.5971 and 71.687 | Raw data Figure 5e (CBPA11-v3, A-1155463 3180 nM): 250.833 and 293.834 | Raw data of Figure 5b (CBPA11-v3, A-1155463 3180 nM): 375.891 and 387.491 and 376.961 | Normalized data of Figure 5b (CBPA11-v3, A-1155463 10000 nM): 33.3676 and 35.0593 and 32.1412 | Raw data Figure 5e (CBPA11-v3, A-1155463 10000 nM): 69.4522 and 75.5808 and 84.1281 | Raw data of Figure 5b (CBPA11-v3, A-1155463 10000 nM): 179.218 and 184.588 and 169.013 | Normalized data Figure 5e (CBPA11-v3-BclXLv2, A-1155463 1 nM): 21.2301 and 20.9054 and 25.1683 | Normalized data Figure 5e (CBPA11-v3-BclXLv2, A-1155463 3.18 nM): 36.7849 and 34.3141 and 39.7967 | Normalized data Figure 5e (CBPA11-v3-BclXLv2, A-1155463 10 nM): 81.6336 and 75.0518 and 82.9089 | Normalized data Figure 5e (CBPA11-v3-BclXLv2, A-1155463 31.8 nM): 90.6446 and 90.5045 and 89.528 | Normalized data Figure 5e (CBPA11-v3-BclXLv2, A-1155463 100 nM): 100 | Normalized data Figure 5e (CBPA11-v3-BclXLv2, A-1155463 318 nM): 94.0748 and 83.4986 and 97.6461 | Normalized data Figure 5e (CBPA11-v3-BclXLv2, A-1155463 1000 nM): 82.1634 and 70.2925 and 84.8015 | Normalized data Figure 5e (CBPA11-v3-BclXLv2, A-1155463 3180 nM): 56.5379 and 50.558 and 54.1989 | Normalized data Figure 5e [1]: 20.2076 and 19.0615 and 22.8054 | Raw data Figure 5e [1]: 80.3813 and 74.5359 and 94.7265 | Raw data of Independent repeat of CBPA11-v3 vs CBPA11-v3-LD3v3 (CBPA11-v3-LD3v3, A-1155463 0.01 nM): 22.6826 and 23.3953 and 23.1684 | Normalized data of Figure 5b [2]: 18.3263 and 15.7809 and 17.6916 | Raw data of Figure 5b [2]: 15.5654 and 14.7861 and 18.9282 | Raw data of Independent repeat of CBPA11-v3 vs CBPA11-v3-LD3v3 [2]: 39.675 and 38.1934 and 39.412 | Raw data of Independent repeat of CBPA11-v3 vs CBPA11-v3-LD3v3 (CBPA11-v3-LD3v3, A-1155463 3.16 nM): 41.6393 and 41.4109 and 44.6799 | Normalized data of Figure 5b [3]: 21.7199 and 21.0211 and 18.3728 | Raw data of Figure 5b [3]: 18.4478 and 19.6959 and 19.6571 | Normalized data of Figure 5b [4]: 42.8939 and 42.6676 and 37.1804 | Raw data of Figure 5b [4]: 36.4319 and 39.9778 and 39.7793 | Raw data of Independent repeat of CBPA11-v3 vs CBPA11-v3-LD3v3 [4]: 121.488 and 115.434 and 117.733 | Raw data of Independent repeat of CBPA11-v3 vs CBPA11-v3-LD3v3 (CBPA11-v3-LD3v3, A-1155463 31.6 nM): 175.057 and 186.814 and 198.727 | Normalized data of Figure 5b [5]: 100 and 85.1231 and 93.5368 | Raw data of Figure 5b [5]: 84.9348 and 79.7569 and 100.075 | Normalized data of Figure 5b [6]: 98.4645 and 100 | Raw data of Figure 5b [6]: 83.6306 | Raw data of Independent repeat of CBPA11-v3 vs CBPA11-v3-LD3v3 [6]: 212.624 and 240.137 and 273.777 | Raw data of Independent repeat of CBPA11-v3 vs CBPA11-v3-LD3v3 (CBPA11-v3-LD3v3, A-1155463 316 nM): 197.006 and 197.385 and 185.58 | Normalized data of Figure 5b [7]: 66.0363 and 74.9346 and 74.5506 | Raw data of Figure 5b [7]: 56.0878 and 70.2108 and 79.7618 | Normalized data of Figure 5b [8]: 44.7107 and 39.495 and 38.775 | Raw data of Figure 5b [8]: 37.975 and 37.0053 and 41.4854 | Raw data of Independent repeat of CBPA11-v3 vs CBPA11-v3-LD3v3 [8]: 89.9783 and 83.2851 and 69.3694 | Raw data of Independent repeat of CBPA11-v3 vs CBPA11-v3-LD3v3 (CBPA11-v3-LD3v3, A-1155463 3160 nM): 42.2434 and 33.2038 and 38.7983 | Normalized data of Figure 5b [9]: 16.4914 and 15.345 and 15.1706 | Raw data of Figure 5b [9]: 14.007 and 14.3777 and 16.2311
